The subject of one data set is Sprague-Dawley rats. Nature of the data set: PD studies: blood glucose after subcutaneous dosing. It counts as in vivo. The note with it: sc, dose 30 nmol/kg. An outline of the steps: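 Normal male Sprague-Dawley rats (~350 g), fed ad libitum, received a single subcutaneous neck dose of 30 nmol/kg unless otherwise stated. Tongue-vein blood was sampled up to 10 days post-dose for blood glucose (Biosen analyser) and plasma insulin.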

The next data set addresses insulin receptor A (Homo sapiens, UniProt P06213). Nature of the data set: Insulin receptor affinity. It counts as binding. The note with it: relative to affinity of human insulin for insulin receptor A (100%).
Another data set deals with isolated rat adipocytes. Nature of the data set: Insulin-stimulated lipogenesis. It is filed as cell-based. The note with it: 1% HSA; relative to the activity of human insulin (100%). The protocol:
Insulin-stimulated lipogenesis was measured in isolated rat adipocytes in presence of 1% HSA as described in Moody A J, Stan M A, Stan M, Gliemann J. A Simple Free Fat Cell Bioassay for Insulin. Hormone And Metabolic Research. 1974; 6(1):12-6, see results in Table 6.

Data set [1] is described as follows: PK studies: intravenous and subcutaneous administration to SD rats, insulin-Fc concentrations by immuno-assay. It counts as in vivo. The note with it: for PK rat sc [T½ (h)] Mean Value: subcutaneous. On the procedure:
Insulin-Fc conjugates were tested in vivo by intravenous and subcutaneous administration to SD rats. Blood samples were collected and the insulin-Fc concentrations were measured by immuno-assay.

“And” between values parts separate entries of the source, which are not always exact repeats. Equal entries are not always repeated.

Sequence of insulin receptor A (P06213 28-1370 isoform P06213-2 limits assumed): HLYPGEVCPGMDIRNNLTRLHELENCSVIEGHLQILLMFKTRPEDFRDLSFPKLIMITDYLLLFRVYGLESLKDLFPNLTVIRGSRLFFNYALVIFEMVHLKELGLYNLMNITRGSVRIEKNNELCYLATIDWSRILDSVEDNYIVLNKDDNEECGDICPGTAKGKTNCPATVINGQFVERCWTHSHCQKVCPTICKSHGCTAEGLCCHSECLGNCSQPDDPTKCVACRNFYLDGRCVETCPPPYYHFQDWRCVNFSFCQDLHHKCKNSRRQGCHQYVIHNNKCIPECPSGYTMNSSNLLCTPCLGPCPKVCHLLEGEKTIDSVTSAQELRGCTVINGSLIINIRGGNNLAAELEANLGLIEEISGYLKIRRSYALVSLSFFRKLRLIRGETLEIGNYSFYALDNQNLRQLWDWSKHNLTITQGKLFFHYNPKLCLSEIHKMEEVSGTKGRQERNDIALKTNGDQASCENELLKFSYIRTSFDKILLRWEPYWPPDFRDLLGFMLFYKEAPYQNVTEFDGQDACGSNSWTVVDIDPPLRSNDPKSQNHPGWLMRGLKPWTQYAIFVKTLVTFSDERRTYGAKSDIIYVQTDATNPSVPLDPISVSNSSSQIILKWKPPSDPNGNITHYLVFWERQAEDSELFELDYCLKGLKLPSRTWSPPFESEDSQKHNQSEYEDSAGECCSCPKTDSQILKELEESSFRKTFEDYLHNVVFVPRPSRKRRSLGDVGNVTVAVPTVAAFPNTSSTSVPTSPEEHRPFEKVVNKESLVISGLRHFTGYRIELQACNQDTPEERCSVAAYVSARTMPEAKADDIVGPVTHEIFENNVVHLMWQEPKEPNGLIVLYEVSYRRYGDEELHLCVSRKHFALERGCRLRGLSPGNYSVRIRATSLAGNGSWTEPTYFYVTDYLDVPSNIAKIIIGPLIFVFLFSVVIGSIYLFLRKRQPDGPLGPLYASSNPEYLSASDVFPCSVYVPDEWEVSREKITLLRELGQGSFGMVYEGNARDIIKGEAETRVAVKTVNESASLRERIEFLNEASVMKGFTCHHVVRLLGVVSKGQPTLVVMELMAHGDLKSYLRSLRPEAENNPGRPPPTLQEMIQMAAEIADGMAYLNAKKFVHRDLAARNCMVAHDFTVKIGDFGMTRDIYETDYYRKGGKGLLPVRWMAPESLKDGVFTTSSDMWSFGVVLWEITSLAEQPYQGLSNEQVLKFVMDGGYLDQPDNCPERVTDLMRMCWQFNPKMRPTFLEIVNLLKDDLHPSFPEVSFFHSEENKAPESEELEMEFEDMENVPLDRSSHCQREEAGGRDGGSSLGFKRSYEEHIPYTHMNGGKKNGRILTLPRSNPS
Sequence of insulin receptor A (P06213 763-1382 partner limits assumed): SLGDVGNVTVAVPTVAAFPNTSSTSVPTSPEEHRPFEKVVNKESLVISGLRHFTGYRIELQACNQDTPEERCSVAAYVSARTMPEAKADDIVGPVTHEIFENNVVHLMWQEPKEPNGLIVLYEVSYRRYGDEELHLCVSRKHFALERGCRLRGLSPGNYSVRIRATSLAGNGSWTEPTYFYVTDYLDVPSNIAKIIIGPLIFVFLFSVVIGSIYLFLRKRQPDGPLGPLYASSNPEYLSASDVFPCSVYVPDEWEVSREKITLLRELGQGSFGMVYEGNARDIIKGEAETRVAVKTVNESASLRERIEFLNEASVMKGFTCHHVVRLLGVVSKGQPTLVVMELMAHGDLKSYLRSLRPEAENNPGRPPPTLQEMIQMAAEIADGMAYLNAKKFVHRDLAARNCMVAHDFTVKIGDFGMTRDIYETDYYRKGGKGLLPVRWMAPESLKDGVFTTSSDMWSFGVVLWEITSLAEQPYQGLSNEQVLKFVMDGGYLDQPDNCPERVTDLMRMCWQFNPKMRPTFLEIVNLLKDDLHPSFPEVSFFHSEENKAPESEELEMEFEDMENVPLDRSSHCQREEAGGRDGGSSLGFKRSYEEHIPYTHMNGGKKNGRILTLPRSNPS

“(A14E, A21G, A22(GQAP)18, A94G, A95Q, A96A, A97K^, A98P, B29R, desB30 human insulin)/(227A, 234A, 235K, 297E, 315Q, 384Q, des447 hIgG4-Fc(228-447))4-[bis[2-[(2-acetyl)amino]ethyl]amino]-4-oxo-butanoyl Conjugate [Example 5.26]”: the Average blood glucose with Sprague-Dawley rats (time 0 days) stood at 5.82 mM; in the data set with Sprague-Dawley rats (time 0.041667 days), 5.984 mM; in the data set with Sprague-Dawley rats (time 0.125 days), 5.3 mM; in the data set on Sprague-Dawley rats (time 0.291667 days) it was 4.384 mM; in the data set with Sprague-Dawley rats (time 1 day) it was 3.332 mM; in the data set on Sprague-Dawley rats (time 2 days), 4.992 mM. The Average blood glucose in the data set on Sprague-Dawley rats (time 3 days) turned out to be 6.352 mM; in the data set on Sprague-Dawley rats (time 4 days), 5.804 mM; in the data set on Sprague-Dawley rats (time 5 days) it was 5.752 mM; with Sprague-Dawley rats (time 6 days), 6.232 mM; in the data set on Sprague-Dawley rats (time 7 days), 6.048 mM; in the data set with Sprague-Dawley rats (time 8 days), 6.236 mM. Besides, the Average blood glucose in the data set on Sprague-Dawley rats (time 9 days) is 5.972 mM; in the data set on Sprague-Dawley rats (time 10 days), 5.88 mM. Further, on insulin receptor A, the “Insulin receptor affinity [IC50 relative to HI (%)] Mean Value” is listed as 3.95%. Also, the “Lipogenesis in rat adipocytes [Potency (%)] Mean Value” with isolated rat adipocytes amounted to 3.23%. In data set [1], the “PK rat iv [T½ (h)] Mean Value” was determined as 49.8 h. In addition, in data set [1], the “PK rat sc [T½ (h)] Mean Value” was found to be 53.5 h.
“(A14E, A21G, A22(GQEP)19, A98K^, A99P, B25H, B29R, desB30 human insulin)/(227A, 234A, 235K, 297E, 315Q, 384Q, des447 hIgG4-Fc(228-447))4-[bis[2-[(2-acetyl)amino]ethyl]amino]-4-oxo-butanoyl Conjugate [Example 5.12]”: the Average blood glucose in the data set with Sprague-Dawley rats (time 0 days, listed as Ex 5.12) is 5.816 mM and 5.516 mM; in the data set on Sprague-Dawley rats (time 0.041667 days, listed as Ex 5.12), 5.598 mM and 6.16 mM; with Sprague-Dawley rats (time 0.125 days, listed as Ex 5.12), 5.674 mM and 4.608 mM; in the data set with Sprague-Dawley rats (time 0.208333 days) it was 5.338 mM; in the data set with Sprague-Dawley rats (time 0.291667 days, listed as Ex 5.12) it was 4.598 mM and 3.988 mM; in the data set with Sprague-Dawley rats (time 1 day, listed as Ex 5.12), 2.986 mM and 2.88 mM. The Average blood glucose is 2.524 mM and 2.348 mM in the data set with Sprague-Dawley rats (time 2 days, listed as Ex 5.12); 2.576 mM and 2.972 mM in the data set on Sprague-Dawley rats (time 3 days, listed as Ex 5.12); 3.284 mM and 6.028 mM in the data set on Sprague-Dawley rats (time 4 days, listed as Ex 5.12); 6.884 mM and 6.06 mM with Sprague-Dawley rats (time 5 days, listed as Ex 5.12); 6.506 mM and 5.74 mM in the data set on Sprague-Dawley rats (time 6 days, listed as Ex 5.12); 6.202 mM and 5.716 mM in the data set on Sprague-Dawley rats (time 7 days, listed as Ex 5.12). Moreover, the Average blood glucose with Sprague-Dawley rats (time 8 days, listed as Ex 5.12) was 6.046 mM and 5.568 mM; in the data set with Sprague-Dawley rats (time 9 days), 5.204 mM; in the data set on Sprague-Dawley rats (time 10 days), 5.556 mM. For the same substance, the “Insulin receptor affinity [IC50 relative to HI (%)] Mean Value” at insulin receptor A stood at 1.85%. Also, in the data set on isolated rat adipocytes, the “Lipogenesis in rat adipocytes [Potency (%)] Mean Value” is reported as 2.35%. Also, in data set [1], the “PK rat iv [T½ (h)] Mean Value” was found to be 23.3 h. Also, in data set [1], the “PK rat sc [T½ (h)] Mean Value” came to 25.1 h.
Consider “A14E, A21G, A22(GQEP)12, A70K^, A71P, B25H, B29R, desB30 human insulin/(227A, 234A, 235K, 297E, 315Q, 384Q, des447 hIgG4-Fc(228-447))4-[bis[2-[(2-acetyl)amino]ethyl]amino]-4-oxo-butanoyl Conjugate [Example 5.17]”, for which the Average blood glucose in the data set on Sprague-Dawley rats (time 0 days) came to 6.372 mM; with Sprague-Dawley rats (time 0.041667 days), 5.84 mM; in the data set on Sprague-Dawley rats (time 0.125 days), 5.14 mM; with Sprague-Dawley rats (time 0.291667 days), 3.672 mM; in the data set with Sprague-Dawley rats (time 1 day), 2.6 mM; with Sprague-Dawley rats (time 2 days), 2.704 mM. The Average blood glucose in the data set with Sprague-Dawley rats (time 3 days) is given as 2.772 mM; in the data set on Sprague-Dawley rats (time 4 days), 5.232 mM; in the data set with Sprague-Dawley rats (time 6 days), 5.88 mM; with Sprague-Dawley rats (time 7 days), 5.908 mM; in the data set with Sprague-Dawley rats (time 8 days), 5.656 mM. Besides, the “Insulin receptor affinity [IC50 relative to HI (%)] Mean Value” at insulin receptor A was found to be 3.98%. The “Lipogenesis in rat adipocytes [Potency (%)] Mean Value” in the data set on isolated rat adipocytes turned out to be 4.39%. Besides, the “PK rat iv [T½ (h)] Mean Value” in data set [1] came out at 46.2 h. In data set [1], the “PK rat sc [T½ (h)] Mean Value” is recorded as 40.3 h.

Source of the values: patent US11471537B2, “Oligomer extended insulin-Fc conjugates” (Novo Nordisk A/S, priority 2017, dated 2022).
